Results as given in patent US7829557B2, “2-heterosubstituted 3-aryl-4H-1-benzopyran-4-ones as novel therapeutics in breast cancer” (The Ohio State University Research Foundation, priority 2006, dated 2010).
Like-named read-outs stand apart in the source and are kept apart here.

Columns and labels:
MCF-7 cells = test: Dose response / IC50 for effects on proliferation in MCF-7 cells; type: cell-based, human
Method: Several members of the combinatorial library that was prepared in accordance with the methods of this invention have been tested for effects on proliferation in MCF-7 cells and MDA-MB-231 cells.
Dose response studies were performed with compounds from the combinatorial library. Compounds 234, 220, 244, 230, 258, YWK-II-14 and 4-OH-Tamoxifen were performed.
IC50 ranges for several members of the combinatorial library were within 95% confidence intervals.

[1] = system: human breast cancer cell lines; test: Suppression of proliferation of human breast cancer cell lines; type: cell-based; conditions: suppressing proliferation of human breast cancer cell lines; most potent of the series
Text: Thus, we designed and synthesized several isoflavones containing a basic side chain connected through either an oxygen or a sulfur linkage (synthetic scheme—FIG. 9).

[2] = 95% confidence interval, no unit in this head, cell line taken from Example 5 (MCF-7), read-out: IC50 Range
[3] = from GraphPad Prism fit, read-out: IC50 (From Program)
[4] = midpoint and half-width of the IC50 range, read-out: IC50 ± ΔIC50

IC50 (MCF-7 cells; [2]) [µM] | IC50 (MCF-7 cells; [3]) [µM] | IC50 (MCF-7 cells; [4]) [µM] | IC50 [1] [µM] | Structure (SMILES)
2.41 to 7.23 | 4.17 | 4.82 ± 2.41 | – | COc1ccc(-c2c(Sc3ccc(OCCN4CCCCC4)cc3)oc3cc(OCc4ccccc4)ccc3c2=O)cc1 [Compound 230]
0.36 to 0.92 | 0.58 | 0.64 ± 0.28 | – | COc1ccc(-c2c(Sc3ccc(OCCN4CCCCC4)cc3)oc3cc(O)ccc3c2=O)cc1 [Compound 234]
– | – | – | 0.058 | COc1ccc(-c2c(Sc3ccc(OCCN4CCCCC4)cc3)oc3cc(O)ccc3c2=O)cc1 [Compound 310a]
7.86 to 15.7 | 11.1 | 11.8 ± 3.94 | – | O=c1c(-c2ccc(O)cc2)c(Sc2ccc(O)cc2)oc2cc(O)ccc12 [Compound 244]
2.3 to 5.88 | 3.67 | 4.09 ± 1.79 | – | COc1ccc(-c2c(Oc3ccc(OCCN4CCCCC4)cc3)oc3cc(OCc4ccccc4)ccc3c2=O)cc1 [Compound 258]

The next lines start with the compound.

Structure (SMILES) | IC50 (MCF-7 cells; [2]) [µM] | IC50 (MCF-7 cells; [3]) [µM] | IC50 (MCF-7 cells; [4]) [µM] | IC50 [1] [µM]
CC/C(=C(\c1ccc(O)cc1)c1ccc(OCCN(C)C)cc1)c1ccccc1 [4-OH Tamoxifen, reference compound] | 3.61 to 4.93 | 4.22 | 4.27 ± 0.66 | –
COc1ccc(-c2c(Oc3ccc(OCCN4CCCCC4)cc3)oc3cc(O)ccc3c2=O)cc1 [YWK-II-14] | ~6.31 | ~6.31 | ~6.31 | –
COc1ccc(-c2c(Sc3ccc(O)cc3)oc3cc(OCc4ccccc4)ccc3c2=O)cc1 [Compound 220] | 2.87 to 7.68 | 4.7 | 5.28 ± 2.4 | –
